Results published in US9212130B2, “Heterocyclic derivative and pharmaceutical composition comprising the same” (SHIONOGI & CO., LTD., priority 2010, dated 2015).

Target: human P2X3 receptor (Homo sapiens (Human), UniProt P56373)
Experiment: Evaluation of human P2X3 receptor inhibitory activity (ATP-induced Fluo-3 fluorescence, FDSS 3000)
Assay type: cell-based
Settings: C6BU-1 cell transfected with human P2X3 receptor gene
Method: The plate was placed in High-Throughput Screening System FDSS 3000 (Hamamatsu Photonics K.K.). […] Five minutes after, 50 nM ATP solution (50 μL) prepared by dilution with the dilution buffer was dispensed through the built-in automatic dispenser, and the measurement of fluorescence intensity was continued for 3 min. For each well, the specific maximum fluorescence intensity was calculated as the ratio of the maximum fluorescence intensity after addition of the ATP solution to the fluorescence intensity at the starting of the measurement. […] FDSS software (Hamamatsu Photonics K.K.) was used for calculation of the specific maximum fluorescence intensity. IC50 was calculated using Microsoft Excel (Microsoft. Corporation) and XLfit (idbs Ltd.)
The aforementioned in mM, μM and nM are each means mmol/L, μmol/L and nmol/L, respectively.
In tables, μM means μmol/L.

human P2X3 receptor, sequence (P56373 whole entry): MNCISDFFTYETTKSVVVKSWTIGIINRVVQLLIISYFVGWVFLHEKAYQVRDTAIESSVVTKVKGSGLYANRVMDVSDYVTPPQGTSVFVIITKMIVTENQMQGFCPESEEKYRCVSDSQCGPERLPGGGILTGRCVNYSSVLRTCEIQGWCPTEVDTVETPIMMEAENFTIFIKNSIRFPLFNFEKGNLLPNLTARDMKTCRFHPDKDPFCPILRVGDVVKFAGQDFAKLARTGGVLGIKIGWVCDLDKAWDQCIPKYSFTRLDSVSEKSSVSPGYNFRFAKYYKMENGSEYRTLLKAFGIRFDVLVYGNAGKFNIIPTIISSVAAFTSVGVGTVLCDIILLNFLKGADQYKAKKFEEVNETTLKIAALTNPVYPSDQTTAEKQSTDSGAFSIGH

| Compound | IC50 [nM] |
| --- | --- |
| CC(C)Oc1ccc(Nc2cc(=O)n(C[C@H](C)C(=O)O)c(=O)n2Cc2ccc(Cl)cc2)nc1 [I-217] | 453 |
| CC(C)Oc1ccc(Nc2cc(=O)n(C[C@H](C)C(=O)O)c(=O)n2Cc2ccc(Cl)cc2)cc1 [I-218] | 55 |
| CNc1cnc(Nc2ccc(OC(C)C)c(F)c2)n(Cc2ccc(Cl)cc2)c1=O [I-222] | 560 |
| CC(C)Oc1ccc(Nc2ncc(NCCCO)c(=O)n2Cc2ccc(Cl)cc2)cc1F [I-223] | 724 |
| CC(C)Oc1ccc(Nc2ncc(NCC3CCOCC3)c(=O)n2Cc2ccc(Cl)cc2)cc1F [I-224] | 511 |
| CC(C)Oc1ccc(Nc2nc(=O)c3cc(C(F)(F)F)ccc3n2Cc2ccc(Cl)cc2)cc1Cl [I-227, 1-(4-chlorobenzyl)-2-(3-chloro-4-isopropoxyphenylamine)-6-trifluoromethylquinazoline-4(3H)-one] | 974 |
| CC(C)Oc1ccc(Nc2nc(=O)c(NC(=O)OC(C)(C)C)cn2Cc2ccc(Cl)cc2)cc1F [I-230] | 92 |
| CC(C)Oc1ccc(Nc2ncc(NC(=O)CCC(=O)O)c(=O)n2Cc2ccc(Cl)cc2)cc1F [I-231] | 226 |
| CC(C)Oc1ccc(Nc2ncc(CCC(=O)O)c(=O)n2Cc2ccc(Cl)cc2)cc1F [I-232] | 681 |
| CC(C)Oc1ccc(Nc2ncc(NC(=O)CC3CCOCC3)c(=O)n2Cc2ccc(Cl)cc2)cc1F [I-233] | 49 |
| CC(C)Oc1ccc(Nc2ncc(NC(=O)C3CCOCC3)c(=O)n2Cc2ccc(Cl)cc2)cc1F [I-234, 2-(3-fluoro-4-isopropoxyphenylamino)-3-(4-chlorobenzyl)-5-(tetrahydro-2H-pyrane-4-ylcarbonylamino)pyrimidine-4(3H)-one] | 4 |
| CC(C)Oc1ccc(Nc2ncc(NC(=O)C3CCOCC3)c(=O)n2Cc2ccc(Cl)cc2)cc1 [I-235] | 11 |
| CC(C)Oc1ccc(Nc2ncc(NC(=O)C3CCOCC3)c(=O)n2Cc2ccc(Cl)cc2)cc1Cl [I-236] | 6 |
| Cc1cc(Nc2ncc(NC(=O)C3CCOCC3)c(=O)n2Cc2ccc(Cl)cc2)ccc1OC(C)C [I-237] | 13 |
| CC(C)Oc1ccc(Nc2nc(=O)c(NC(=O)C3CCOCC3)cn2Cc2ccc(Cl)cc2)cc1F [I-238] | 653 |
| CC(C)Oc1ccc(Nc2nc(=O)c(NC=O)cn2Cc2ccc(Cl)cc2)cc1F [I-239] | 515 |
| COCCC(=O)Nc1cn(Cc2ccc(Cl)cc2)c(Nc2ccc(OC(C)C)c(F)c2)nc1=O [I-240] | 417 |
| CC(C)Oc1ccc(Nc2ncc(C(=O)NC3CCOCC3)c(=O)n2Cc2ccc(Cl)cc2)cc1F [I-242] | 67 |
| CC(C)Oc1ccc(Nc2ncc(N)c(=O)n2Cc2ccc(Cl)cc2)cc1F [I-243] | 676 |
| O=C(Nc1cnc(Nc2ccc(Oc3cc[nH]c(=O)c3)cc2)n(Cc2ccc(Cl)cc2)c1=O)C1CCOCC1 [I-244] | 2 |
| O=C(Nc1cnc(Nc2ccc(Oc3cncc(F)c3)cc2)n(Cc2ccc(Cl)cc2)c1=O)C1CCOCC1 [I-245] | 0.8 |
| CC(=O)Nc1cnc(Nc2ccc(OC(C)C)c(F)c2)n(Cc2ccc(Cl)cc2)c1=O [I-246] | 106 |
| CC(C)Oc1ccc(Nc2ncc(NC(=O)C(C)C)c(=O)n2Cc2ccc(Cl)cc2)cc1F [I-247] | 19 |
| COCCC(=O)Nc1cnc(Nc2ccc(OC(C)C)c(F)c2)n(Cc2ccc(Cl)cc2)c1=O [I-248] | 24 |
| COCC(=O)Nc1cnc(Nc2ccc(OC(C)C)c(F)c2)n(Cc2ccc(Cl)cc2)c1=O [I-249] | 35 |

| Compound | IC50 [nM] |
| --- | --- |
| CCNC(=O)Nc1cnc(Nc2ccc(OC(C)C)c(F)c2)n(Cc2ccc(Cl)cc2)c1=O [I-250] | 7 |
| CC(C)Oc1ccc(Nc2ncc(NS(C)(=O)=O)c(=O)n2Cc2ccc(Cl)cc2)cc1F [I-252] | 62 |
| CC(C)Oc1ccc(Nc2ncc(N(S(C)(=O)=O)S(C)(=O)=O)c(=O)n2Cc2ccc(Cl)cc2)cc1F [I-253] | 536 |
| CC(C)Oc1ccc(Nc2ncc(NC(=O)C(=O)O)c(=O)n2Cc2ccc(Cl)cc2)cc1F [I-254] | 20 |
| CC(C)Oc1ccc(Nc2ncc(Br)c(=O)n2Cc2ccc(Cl)cc2)cc1F [I-257] | 319 |
| CC(C)Oc1ccc(Nc2ncc(C(N)=O)c(=O)n2Cc2ccc(Cl)cc2)cc1F [I-258] | 47 |
| CC(C)Oc1ccc(Nc2ncc(C#N)c(=O)n2Cc2ccc(Cl)cc2)cc1F [I-259] | 436 |
| CCCC(=O)Nc1cnc(Nc2ccc(OC(C)C)c(F)c2)n(Cc2ccc(Cl)cc2)c1=O [I-260] | 15 |
| CCc1nc2ccc(Nc3ncc(NC(=O)C4CCOCC4)c(=O)n3Cc3ccc(Cl)cc3)cc2s1 [I-262] | 3 |
| Cc1nc2ccc(Nc3ncc(NC(=O)C4CCOCC4)c(=O)n3Cc3ccc(Cl)cc3)cc2s1 [I-264] | 4 |
| Cc1ccc(Oc2ccc(Nc3ncc(NC(=O)C4CCOCC4)c(=O)n3Cc3ccc(Cl)cc3)cc2)cn1 [I-265] | 1 |
| CC(C)Oc1ccc(Nc2ncc(C(=O)NNC=O)c(=O)n2Cc2ccc(Cl)cc2)cc1F [I-266] | 55 |
| CC(=O)OC(C)(C)C(=O)Nc1cnc(Nc2ccc(OC(C)C)c(F)c2)n(Cc2ccc(Cl)cc2)c1=O [I-267] | 25 |
| CC(C)Oc1ccc(Nc2ncc(NC(=O)C(C)(C)O)c(=O)n2Cc2ccc(Cl)cc2)cc1F [I-268] | 4 |
| CC(C)Oc1ccc(Nc2ncc(NC(=O)CCO)c(=O)n2Cc2ccc(Cl)cc2)cc1F [I-269] | 31 |
| CC(=O)N1CCC(C(=O)Nc2cnc(Nc3ccc(OC(C)C)c(F)c3)n(Cc3ccc(Cl)cc3)c2=O)CC1 [I-270] | 10 |
| CC(C)Oc1ccc(Nc2ncc(C(=O)NNC(=O)OC(C)(C)C)c(=O)n2Cc2ccc(Cl)cc2)cc1F [I-271] | 29 |
| CC(C)Oc1ccc(Nc2ncc(C(=O)NN)c(=O)n2Cc2ccc(Cl)cc2)cc1F [I-272] | 104 |
| COc1cc(C(=O)Nc2cnc(Nc3ccc(OC(C)C)c(F)c3)n(Cc3ccc(Cl)cc3)c2=O)ccn1 [I-273] | 95 |
| COc1ccc(C(=O)Nc2cnc(Nc3ccc(OC(C)C)c(F)c3)n(Cc3ccc(Cl)cc3)c2=O)cn1 [I-274] | 66 |
| CC(C)Oc1ccc(Nc2ncc(NC(=O)c3cc[nH]c(=O)c3)c(=O)n2Cc2ccc(Cl)cc2)cc1F [I-275] | 11 |
| CC(C)Oc1ccc(Nc2ncc(NC(=O)c3ccc(=O)[nH]c3)c(=O)n2Cc2ccc(Cl)cc2)cc1F [I-276] | 32 |
| CC(C)Oc1ccc(Nc2ncc(NC(N)=O)c(=O)n2Cc2ccc(Cl)cc2)cc1F [I-277] | 49 |
| CC(C)Oc1ccc(Nc2ncc(NC(=O)N3CCOCC3)c(=O)n2Cc2ccc(Cl)cc2)cc1F [I-278] | 16 |
| CC(C)Oc1ccc(Nc2ncc(NC(=O)c3ccn(C)c(=O)c3)c(=O)n2Cc2ccc(Cl)cc2)cc1F [I-279] | 139 |

| Compound | IC50 [nM] |
| --- | --- |
| Cc1nc2ccc(Nc3ncc(C)c(=O)n3Cc3ccc(Cl)cc3)cc2s1 [I-280] | 237 |
| CCOC(=O)c1cn(Cc2ccc(Cl)cc2)c(Nc2ccc3nc(C)sc3c2)nc1=O [I-282] | 272 |
| CC(C)Oc1ccc(Nc2ncc(NC(=O)C3COC(C)(C)OC3)c(=O)n2Cc2ccc(Cl)cc2)cc1F [I-287] | 23 |
| CC(C)Oc1ccc(Nc2ncc(NC(=O)C(CO)CO)c(=O)n2Cc2ccc(Cl)cc2)cc1F [I-288] | 17 |
| CC(C)Oc1ccc(Nc2ncc(NC(=O)C(C)(C)C#N)c(=O)n2Cc2ccc(Cl)cc2)cc1F [I-290] | 23 |
| CC(=O)Nc1cnc(Nc2ccc(Oc3ccc(C)nc3)cc2)n(Cc2ccc(Cl)cc2)c1=O [I-291] | 43 |
| Cc1ccc(Oc2ccc(Nc3ncc(N)c(=O)n3Cc3ccc(Cl)cc3)cc2)cn1 [I-292] | 433 |
| CC(=O)OC(C)(C)C(=O)Nc1cnc(Nc2ccc(Oc3ccc(C)nc3)cc2)n(Cc2ccc(Cl)cc2)c1=O [I-293] | 14 |
| Cc1ccc(Oc2ccc(Nc3ncc(NC(=O)C4COC(C)(C)OC4)c(=O)n3Cc3ccc(Cl)cc3)cc2)cn1 [I-294] | 9 |
| Cc1ccc(Oc2ccc(Nc3ncc(NC(=O)C(C)(C)O)c(=O)n3Cc3ccc(Cl)cc3)cc2)cn1 [I-295] | 2 |
| Cc1ccc(Oc2ccc(Nc3ncc(NC(=O)C(CO)CO)c(=O)n3Cc3ccc(Cl)cc3)cc2)cn1 [I-296] | 7 |
| CC(=O)Nc1cnc(Nc2ccc3nc(C)sc3c2)n(Cc2ccc(Cl)cc2)c1=O [I-297] | 112 |
| Cc1ccc(Oc2ccc(Nc3ncc(NC(=O)C(CO)CO)c(=O)n3Cc3ccc(Cl)cc3)cc2)cn1 [I-298] | 8 |
| COCCCNC(=O)c1cn(Cc2ccc(Cl)cc2)c(Nc2ccc3nc(C)sc3c2)nc1=O [I-300] | 164 |
| Cc1nc2ccc(Nc3nc(=O)c(C(=O)NCCC#N)cn3Cc3ccc(Cl)cc3)cc2s1 [I-301] | 123 |
| CC(=O)N1CCC(NC(=O)c2cn(Cc3ccc(Cl)cc3)c(Nc3ccc4nc(C)sc4c3)nc2=O)CC1 [I-302] | 87 |
| COC(=O)c1cncc(Oc2ccc(Nc3ncc(NC(=O)C4CCOCC4)c(=O)n3Cc3ccc(Cl)cc3)cc2)c1 [I-304] | 2 |
| Cc1nc2ccc(Nc3ncc(Br)c(=O)n3Cc3ccc(Cl)cc3)cc2s1 [I-306] | 207 |
| Cc1nc2ccc(Nc3nc(=O)c(C(=O)NC(C)C)cn3Cc3ccc(Cl)cc3)cc2s1 [I-307] | 40 |
| Cc1nc2ccc(Nc3nc(=O)c(C(=O)NC4COC4)cn3Cc3ccc(Cl)cc3)cc2s1 [I-308] | 133 |
| Cc1nc2ccc(Nc3nc(=O)c(C(=O)NC4CC4)cn3Cc3ccc(Cl)cc3)cc2s1 [I-309] | 61 |
| Cc1nc2ccc(Nc3nc(=O)c(C(=O)NN(C)C)cn3Cc3ccc(Cl)cc3)cc2s1 [I-310] | 132 |
| O=C(Nc1cnc(Nc2ccc(Oc3cnc(Cl)c(F)c3)cc2)n(Cc2ccc(Cl)cc2)c1=O)C1CCOCC1 [I-311] | 4 |
| CSc1ccc(Cn2c(Nc3ccc4nc(C)sc4c3)ncc(NC(=O)C3CCOCC3)c2=O)cc1 [I-312] | 11 |
| CCn1c(=O)cc(Nc2ccc(Oc3cncc(C(=O)OC)c3)cc2)n(Cc2ccc(Cl)cc2)c1=O [I-314] | 35 |
